Test results from ChEMBL document CHEMBL5725974, “ASK1 inhibitor compounds and uses thereof” (2018).

Molecular target: T1, Mitogen-activated protein kinase kinase kinase 5 (Homo sapiens, UniProt Q99683)
T1 sequence (Q99683 whole entry): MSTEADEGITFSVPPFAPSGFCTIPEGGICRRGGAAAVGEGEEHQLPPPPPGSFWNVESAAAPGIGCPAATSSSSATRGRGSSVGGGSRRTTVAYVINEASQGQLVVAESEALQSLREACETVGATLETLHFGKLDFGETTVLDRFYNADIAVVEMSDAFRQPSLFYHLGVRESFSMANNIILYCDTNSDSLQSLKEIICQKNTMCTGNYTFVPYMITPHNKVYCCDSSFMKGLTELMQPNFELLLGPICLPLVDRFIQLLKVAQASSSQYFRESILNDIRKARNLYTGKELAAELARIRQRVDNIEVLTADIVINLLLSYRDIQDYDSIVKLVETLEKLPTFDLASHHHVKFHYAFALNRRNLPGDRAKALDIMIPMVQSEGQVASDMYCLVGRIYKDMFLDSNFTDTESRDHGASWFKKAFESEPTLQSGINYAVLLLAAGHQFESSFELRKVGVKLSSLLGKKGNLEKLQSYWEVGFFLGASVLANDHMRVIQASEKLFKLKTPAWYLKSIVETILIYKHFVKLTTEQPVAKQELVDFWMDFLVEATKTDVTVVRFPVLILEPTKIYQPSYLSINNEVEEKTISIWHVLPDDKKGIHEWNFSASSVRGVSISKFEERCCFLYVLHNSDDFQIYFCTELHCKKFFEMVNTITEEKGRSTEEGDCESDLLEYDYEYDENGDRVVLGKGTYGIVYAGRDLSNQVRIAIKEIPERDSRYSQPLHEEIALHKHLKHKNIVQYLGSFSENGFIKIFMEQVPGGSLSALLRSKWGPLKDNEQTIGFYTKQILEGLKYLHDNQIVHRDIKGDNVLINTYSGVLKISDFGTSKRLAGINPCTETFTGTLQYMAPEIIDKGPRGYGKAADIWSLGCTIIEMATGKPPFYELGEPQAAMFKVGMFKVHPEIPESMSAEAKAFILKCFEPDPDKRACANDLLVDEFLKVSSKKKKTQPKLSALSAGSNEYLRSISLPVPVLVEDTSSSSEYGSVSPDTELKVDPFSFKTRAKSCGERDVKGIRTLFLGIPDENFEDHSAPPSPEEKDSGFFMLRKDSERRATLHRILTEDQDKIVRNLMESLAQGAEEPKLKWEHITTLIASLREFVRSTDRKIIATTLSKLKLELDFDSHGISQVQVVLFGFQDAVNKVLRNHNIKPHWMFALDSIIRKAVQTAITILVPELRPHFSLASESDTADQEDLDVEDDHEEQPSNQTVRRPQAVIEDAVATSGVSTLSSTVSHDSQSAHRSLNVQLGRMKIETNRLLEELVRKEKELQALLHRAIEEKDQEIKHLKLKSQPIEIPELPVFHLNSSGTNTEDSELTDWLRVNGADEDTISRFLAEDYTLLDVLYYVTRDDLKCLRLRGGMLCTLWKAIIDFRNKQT
Assay: ASK1 Kinase Assay: The ASK1 enzymatic assay was run following Promega ASK1 Kinase Enzyme System (Cat #V3881). The kit provides the protocol, enzymes and all reagents necessary to run an assay. Firstly, the compounds, enzyme, substrate and ATP were diluted in provided assay buffer. The final concentration of the enzyme was 50 nM, substrate (Myelin basic protein) 1 μg/ml and ATP 10 μM. The compound and the enzyme were pre-incubated in a 384 well white solid bottom plate (Greiner, Cat#784075) for 10 minutes. After incubation, the substrate and ATP were added and incubated for further 60 minutes. After 60 minutes, ADP-Glo™ was added and plate was incubated for another 40 minutes. After 40 minutes, Kinase Detection Reagent was added and the plate was incubated for 45 minutes. After 45 minutes, plate was read on Perkin Elmer EnVision using luminescence read (0.5 seconds/well).

O=C(NC1CC1)c1ccc2c(c1)CN(c1cccc(-c3nncn3C3CC3)n1)C2=O
IC50: < 200 nM
